Where a name gives a salt, the structure may show the parent alone.
Tests used:
[1] = cited from earlier work
[2] = Solubility evaluation for the solubilizer propylene glycol monocaprylate; conditions: for Propylene glycol monocaprylate solubility: 25° C., 24 hours, 50 mg as memantine free base added to 1 mL
Method: The resulting mixture was treated in a shaking constant temperature bath at 25° C. for 24 hours.
<Liquid Chromatography Conditions>

[3] = Oil phase skin permeability screening, Franz diffusion cell; assay type: in vitro ADME; conditions: 200 ul of 50 mg/mL salt in propylene glycol monocaprylate, human cadaver skin; for Skin penetration rate: 7 days
Method: A pH 7.4 phosphate buffer containing 10% ethanol and 0.02% sodium azide as an aqueous solution was added to the receptor chamber of the Franz diffusion cell, and with the temperature maintained at 32±0.5° C., it was rotated at 600 rpm and stirred.

Molecule | Propylene glycol monocaprylate solubility [2] [µg/mL] | further results
CC12CC3CC(C)(C1)CC(N)(C3)C2 [free base, Memantine free base] |  | log P, the partition coefficient [1]: 3.28
CC12CC3CC(C)(C1)CC(N)(C3)C2.CC12CC3CC(C)(C1)CC(N)(C3)C2.O=C(O)CCCCCC(=O)O [hemi-pimelate, Memantine Hemi-Pimelate] | <5000 | 
CC12CC3CC(C)(C1)CC(N)(C3)C2.CC12CC3CC(C)(C1)CC(N)(C3)C2.O=C(O)CCCCCCC(=O)O [hemi-suberate, Memantine Hemi-Suberate] | <5000 | 
CC12CC3CC(C)(C1)CC(N)(C3)C2 [hydrochloride, Memantine hydrochloride, reference compound] |  | solubility at 24 h ([2]; 25 °C, oil or lipid, thermodynamic from solid): < 5000 µg/mL
CC(=O)CCC(=O)O.CC12CC3CC(C)(C1)CC(N)(C3)C2 [levulinate, Memantine Levulinate, reference compound] |  | Skin permeability for 7 days [3]: 3661 ug/cm2; Skin penetration rate [3]: 22 ug/cm2/hr
Memantine Hemi-Fumarate | <5000 | 
Memantine Hemi-Malate | <5000 | 
Memantine Hemi-Maleate | <5000 | 
Memantine Hemi-Naphthalene Disulfonate | <5000 | 
Memantine Myristate |  | Skin permeability for 7 days [3]: 1083 ug/cm2; Skin penetration rate [3]: 6 ug/cm2/hr

From patent US20250000814A1 (DONG-A ST CO., LTD., priority 2021, published 2025)
